We go through 13 compounds from article PMC12284618 (Chemistry (Weinheim an Der Bergstrasse, Germany), 2025).

Test [1] has as its target T1, soluble CI‐M6P/IGF2R:D1–D15 (Homo sapiens, UniProt P11717).
T1 construct: domains 1–15 (residues AA 41–2304); gp67 signal peptide (X1) (N, cleaved yes); 6‐His‐tag (C); PreScission protease cutting site (C); TwinStrep‐tag (C); made in house; host or cells: Spodoptera frugiperda Sf9 insect cells (baculovirus, pFastBac-1), secreted into the medium
As to the kind of experiment: Reverse saturation fluorescence polarization binding of fluorescent glycopeptide 1. The source says:
The gene encoding human CI‐M6P/IGF2R domains 1–15 (residues AA 41–2304) fused to an N‐terminal gp67 signal peptide ([…]) and C‐terminal 6‐His‐tag, PreScission protease cutting site, and TwinStrep‐tag in pFastBac‐1 vector was used for bacmid generation in DH10Bac E. coli (Thermo Fisher Scientific). The recombinant bacmid DNA was purified using alkaline extraction and transfected using ExpiFectamine‐Sf (Thermo Fisher Scientific) into Spodoptera frugiperda 9 (Sf9) cells. […] Expression of the recombinant protein was assessed by SDS‐PAGE and Western Blot analysis. […]
We employed a fluorescence polarization (FP) binding assay to assess the binding affinity of the tested compounds for a soluble CI‐M6P/IGF2R ectodomain construct. […] Upon binding to the CI‐M6P/IGF2R protein, the probe's rotation slows, resulting in increased fluorescence polarization. This shift is quantified as anisotropy (or polarization), which reflects the ratio of bound to free probe, enabling binding affinity estimation without phase separation.^[ [26] ^] […]
We first analyzed the interaction between soluble CI‐M6P/IGF2R:D1–D15 and the fluorescent probe (glycopeptide 1) using a reverse saturation binding assay in solution. […]
(In fluorescence polarisation assays a small probe gives low polarisation when free and higher when bound to something large.)

For the next test, the target named is T2, CI‐M6P/IGF2R:D1–D15 (Homo sapiens, UniProt P11717).
T2 construct: domains 1–15 (residues AA 41–2304); gp67 signal peptide (X1) (N, cleaved yes); 6‐His‐tag (C); PreScission protease cutting site (C); TwinStrep‐tag (C); made in house; host or cells: Spodoptera frugiperda Sf9 insect cells (baculovirus, pFastBac-1), secreted into the medium
As to the kind of experiment: Competitive fluorescence polarization assay (displacement of fluorescent glycopeptide 1). Type of test: binding. To be noted: for Potency (relative binding potency): (IC50 of compound 2 / IC50 of compound) × 100. The method, then:
The recombinant bacmid DNA was purified using alkaline extraction and transfected using ExpiFectamine‐Sf (Thermo Fisher Scientific) into Spodoptera frugiperda 9 (Sf9) cells. The first generation of recombinant baculovirus was harvested after 5 days post‐transfection and amplified in subsequent shaking cultures of Sf9 in SF‐900 II serum‐free media (Thermo Fisher Scientific) at 27 °C and 130 rpm at a density of 2 × 10^6 cells/ml. Media containing viral particles were harvested after four days, and the amplification step was repeated to obtain high‐titer P2 stock, which was then used in large‐scale expression. […] The column was washed with a buffer containing 100 mM Tris‐HCl and 150 mM NaCl (pH 8.0), and the recombinant protein was eluted using the same buffer supplemented with 50 mM biotin. Expression of the recombinant protein was assessed by SDS‐PAGE and Western Blot analysis. Folding was checked by a competitive binding assay with radioactively labeled IGF2 (a natural ligand of IGF2R).^[ [25] ^]
We employed a fluorescence polarization (FP) binding assay to assess the binding affinity of the tested compounds for a soluble CI‐M6P/IGF2R ectodomain construct. This method monitors the rotational speed of a fluorescent probe—specifically, a fluorescein‐labeled glycopeptide 1. Upon binding to the CI‐M6P/IGF2R protein, the probe's rotation slows, resulting in increased fluorescence polarization. This shift is quantified as anisotropy (or polarization), which reflects the ratio of bound to free probe, enabling binding affinity estimation without phase separation.^[ [26] ^]
In all experiments, the compounds were dissolved in water and serially diluted with water in Echo Qualified 384‐Well PP Source Microplates using a BRAVO pipetting station (Agilent, USA). The compounds were then pre‐spotted onto black 384‐well low‐volume round‐bottom plates (Corning, USA) using an Echo 650 liquid handler (Beckman Coulter, USA) to obtain the desired final compound concentrations. Subsequently, 5 µL of the prepared mixture (soluble receptor and glycopeptide 1 in 100 mM Tris/HCl, 150 mM NaCl, pH 8.0) was added using either a MANTIS Liquid Dispenser (Formulatrix, Dubai, United Arab Emirates) or a Clicktip pipette (Thermo Fischer Scientific, USA). The plate was sealed with Duck Tape (Hampton Research USA) to prevent evaporation, shaken for 10 s at 800 rpm, centrifuged to remove bubbles, and then incubated at room temperature.
Next, competitive FP experiments were performed using a procedure analogous to previously reported methods.^[ [27] ^] […] Subsequently, 5 µL of a mixture containing CI‐M6P/IGF2R:D1–D15 (final concentration: 300 nM) and fluorescent glycopeptide 1 (final concentration: 10 nM) was added using a MANTIS Liquid Dispenser. The anisotropy data from the plate reader were plotted against the compound concentration using GraphPad Prism 8.0. A nonlinear regression analysis, “log [Inhibitor] versus response – Variable slope (four parameters),” was used to calculate the IC₅₀ values (the concentration at which half‐maximal inhibition is achieved) for each competition experiment. Relative binding affinities were calculated as (IC₅₀ of compound 2 / IC₅₀ of each compound) × 100 (%).

The next test has as its target CI‐M6P/IGF2R. More on the design: method as in PMID 3003148. The following applies: monomeric M6P; cited from earlier work.
[2] abbreviates: receptor 300 nM, glycopeptide 1 10 nM, pH 8.0, mean of two independent measurements in triplicate ± S.D., read-out: IC50.
Setting [3] is: receptor 300 nM, glycopeptide 1 10 nM, pH 8.0, mean of two independent measurements in triplicate ± S.D.

Structures can show the parent of a compound that is named as a salt. Where two headings read alike, the source gives them in different places.

Usually Kd stands for a measure of binding affinity in units of concentration. `NCCCC[C@H](NC(=O)[C@H](Cc1cn(CCO[C@H]2O[C@H](CCP(=O)(O)O)[C@@H](O)[C@H](O)[C@@H]2O)nn1)NC(=O)[C@H](CO)NC(=O)[C@H](Cc1cn(CCO[C@H]2O[C@H](CCP(=O)(O)O)[C@@H](O)[C@H](O)[C@@H]2O)nn1)NC(=O)[C@H](CCCCN)NC(=O)[C@H](Cc1cn(CCO[C@H]2O[C@H](CCP(=O)(O)O)[C@@H](O)[C@H](O)[C@@H]2O)nn1)NC(=O)[C@H](CO)NC(=O)[C@H](Cc1cn(CCO[C@H]2O[C@H](CCP(=O)(O)O)[C@@H](O)[C@H](O)[C@@H]2O)nn1)NC(=O)[C@H](CCCCN)NC(=O)[C@H](Cc1cn(CCO[C@H]2O[C@H](CCP(=O)(O)O)[C@@H](O)[C@H](O)[C@@H]2O)nn1)NC(=O)[C@H](CO)NC(=O)CNC(=O)c1ccc2c(c1)C(=O)OC21c2ccc(O)cc2Oc2cc(O)ccc21)C(N)=O` [Compound 1]: the Kd in test [1] (glycopeptide 1 10 nM titrated with receptor 0-1500 nM, pH 8.0, read-out: dissociation constant (Kd)) is approximately 400 nM. Besides, the “cooperativity coefficient (n), Hill koef” value in test [1] (specific binding with Hill slope, glycopeptide 1 10 nM) is recorded as −2.35. As a reminder, the IC50 is the point on the concentration scale where inhibition reaches its midpoint. With `CC(=O)N[C@@H](Cc1c[nH]c2ccccc12)C(=O)N[C@@H](Cc1ccccc1)C(=O)NCC(=O)N[C@@H](CO)C(=O)N[C@@H](Cc1cn(CCO[C@H]2O[C@H](CCP(=O)(O)O)[C@@H](O)[C@H](O)[C@@H]2O)nn1)C(=O)N[C@@H](CCCCN)C(=O)N[C@@H](Cc1cn(CCO[C@H]2O[C@H](CCP(=O)(O)O)[C@@H](O)[C@H](O)[C@@H]2O)nn1)C(=O)N[C@@H](CO)C(=O)N[C@@H](Cc1cn(CCO[C@H]2O[C@H](CCP(=O)(O)O)[C@@H](O)[C@H](O)[C@@H]2O)nn1)C(=O)N[C@@H](CCCCN)C(=O)N[C@@H](Cc1cn(CCO[C@H]2O[C@H](CCP(=O)(O)O)[C@@H](O)[C@H](O)[C@@H]2O)nn1)C(=O)N[C@@H](CO)C(=O)N[C@@H](Cc1cn(CCO[C@H]2O[C@H](CCP(=O)(O)O)[C@@H](O)[C@H](O)[C@@H]2O)nn1)C(=O)N[C@@H](CCCCN)C(N)=O` [Compound 2], the “Potency (relative binding potency)” value on CI‐M6P/IGF2R:D1–D15 is listed as 100.0%. In addition, the concentration for half-maximal inhibition (IC50) on CI‐M6P/IGF2R:D1–D15 (setting [2]) was 480 ± 110 nM. As to `NCCCC[C@H](NC(=O)[C@H](Cc1cn(CCO[C@H]2O[C@H](CCP(=O)(O)O)[C@@H](O)[C@H](O)[C@@H]2O)nn1)NC(=O)[C@H](Cc1c[nH]c2ccccc12)NC(=O)[C@@H](N)Cc1cn(CCO[C@H]2O[C@H](CCP(=O)(O)O)[C@@H](O)[C@H](O)[C@@H]2O)nn1)C(=O)N[C@@H](Cc1cn(CCO[C@H]2O[C@H](CCP(=O)(O)O)[C@@H](O)[C@H](O)[C@@H]2O)nn1)C(N)=O` [Compound 3], the IC50 on CI‐M6P/IGF2R:D1–D15 came to 490 ± 40 nM.

The compound `CC(=O)NCCCC[C@H](NC(=O)[C@H](Cc1cn(CCO[C@H]2O[C@H](CCP(=O)(O)O)[C@@H](O)[C@H](O)[C@@H]2O)nn1)NC(=O)[C@H](Cc1c[nH]c2ccccc12)NC(=O)[C@H](Cc1cn(CCO[C@H]2O[C@H](CCP(=O)(O)O)[C@@H](O)[C@H](O)[C@@H]2O)nn1)NC(C)=O)C(=O)N[C@@H](Cc1cn(CCO[C@H]2O[C@H](CCP(=O)(O)O)[C@@H](O)[C@H](O)[C@@H]2O)nn1)C(N)=O` [Compound 4] registered a half-inhibitory concentration (IC50) on CI‐M6P/IGF2R:D1–D15 of 490 ± 70 nM. As to `NC(=O)[C@H](Cc1cn(CCO[C@H]2O[C@H](CCP(=O)(O)O)[C@@H](O)[C@H](O)[C@@H]2O)nn1)NC(=O)[C@H](Cc1c[nH]c2ccccc12)NC(=O)[C@@H](N)Cc1cn(CCO[C@H]2O[C@H](CCP(=O)(O)O)[C@@H](O)[C@H](O)[C@@H]2O)nn1` [Compound 5], the IC50 at CI‐M6P/IGF2R:D1–D15 (setting [2]) was 480 ± 100 nM.

On to `CC(=O)N[C@@H](Cc1cn(CCO[C@H]2O[C@H](CCP(=O)(O)O)[C@@H](O)[C@H](O)[C@@H]2O)nn1)C(=O)N[C@@H](Cc1c[nH]c2ccccc12)C(=O)N[C@@H](Cc1cn(CCO[C@H]2O[C@H](CCP(=O)(O)O)[C@@H](O)[C@H](O)[C@@H]2O)nn1)C(N)=O` [Compound 6], for which the IC50 on CI‐M6P/IGF2R:D1–D15 (setting [2]) worked out at 660 ± 900 nM. Regarding `CO[C@H]1O[C@H](CCP(=O)(O)O)[C@@H](O)[C@H](O)[C@@H]1O` [Compound 8, Methyl 6-deoxy-6-phosphonomethyl-α-D-mannopyranoside bis(triethylammonium) salt], the “Potency (relative binding potency)” value at CI‐M6P/IGF2R:D1–D15 is 4.1%. The IC50 at CI‐M6P/IGF2R:D1–D15 (values used for comparison with calculations, read-out: experimental IC50 (as listed in Tables S1-S3)) was 11500 nM. As for `CO[C@H]1O[C@H](CP(=O)(O)O)[C@@H](O)[C@H](O)[C@@H]1O` [Compound 9], on CI‐M6P/IGF2R:D1–D15, the “Potency (relative binding potency)” value was determined as 0.35%. Moreover, the IC50 at CI‐M6P/IGF2R:D1–D15 (setting [2]) stood at 137000 ± 2000 nM. `CO[C@H]1O[C@H](CCc2nnn[nH]2)[C@@H](O)[C@H](O)[C@@H]1O` [Compound 10]: the IC50 result at CI‐M6P/IGF2R:D1–D15 (setting [3]) is “did not bind and unmeasurably low and n.b”. On to `CO[C@H]1O[C@H](CCC(=O)O)[C@@H](O)[C@H](O)[C@@H]1O` [Compound 11], for which, at CI‐M6P/IGF2R:D1–D15, the “fold reduction in binding affinity compared to native M6P 7” value was “fivefold” and the “Potency (relative binding potency)” value is reported as 0.85%. On CI‐M6P/IGF2R:D1–D15 (setting [2]), the IC50 came to 56000 ± 12000 nM.

On to `CO[C@H]1O[C@H](Cc2nnn[nH]2)[C@@H](O)[C@H](O)[C@@H]1O` [Compound 12], for which the IC50 entry on CI‐M6P/IGF2R:D1–D15 (setting [3]) was “did not bind and unmeasurably low and n.b”. Take `O=P(O)(O)CC[C@H]1O[C@H](C/C=C/c2ccc(O)cc2)[C@@H](O)[C@@H](O)[C@@H]1O` [Compound 13]: on CI‐M6P/IGF2R:D1–D15, the “fold increase in binding affinity compared to compound 8” value is on record as “almost threefold” and the “Potency (relative binding potency)” value is given as 11.3%. Further, the concentration for half-maximal inhibition (IC50) at CI‐M6P/IGF2R:D1–D15 (setting [2]) is 4200 ± 20 nM. With mannose‐6‐phosphate [Compound 7], on CI‐M6P/IGF2R, the Kd was approximately 7000 nM.
